According to PMC11125039, “An Effective Modification Strategy to Build Multifunctional Peptides Based on a Trypsin Inhibitory Peptide of the Kunitz Family” (Pharmaceutics, 2024):
Like-named read-outs stand apart in the source and are kept apart here. Bridge positions count the residues as written; N and C are the ends. Peptide text beside a SMILES is read from it.

Legend:
E. coli (NCTC 13846) [1] = assay: Time-killing kinetic assay; assay type: cell-based, Escherichia coli; details: for killing kinetics (in words): MIC, 2 × MIC and 4 × MIC
Procedure: (§1) The time-killing kinetic assay was executed to explore the killing efficiency of the peptides against bacteria. […] The bacteria were cultured using the same method as that employed in the antimicrobial activity determination assay. […] All colonies were counted and recorded after the seeded plates had been incubated at 37 °C for 24 h.

E. coli (BAA 2340) [2] = assay: Time-killing kinetic assay; assay type: cell-based, Escherichia coli
Procedure: as §1

[3] = test system: E. coli (BAA 2340)-infected waxworms; assay type: in vivo, Galleria mellonella
Procedure: The larvae of Galleria mellonella were used to evaluate the in vivo antibacterial activity of the peptides. In this assay, the larvae (250 ± 25 mg) (Livefood UK Ltd., Rooks Bridge, UK) of the infected group were infected with 10 μL of a bacterial suspension (1 × 10^7 CFU/mL). After one hour, 10 μL of a peptide solution was injected into each infected larva. As a positive control, infected larvae received 20 mg/kg of rifampicin. The vehicle control consisted of uninfected larvae administered 10 μL of PBS. All larvae were then monitored every 24 h for a duration of five days.

HCT116 = assay: Antiproliferation assay (MTT); assay type: cell-based, human; details: HCT116, 24 h
Procedure: (§4) The tested human cell lines in this assay included cancerous and non-cancerous cell lines: a human breast cancer cell line (MCF-7), a human lung carcinoma cell line (H838), a human colorectal carcinoma cell line (HCT116), and a human glioblastoma astrocytoma cell line (U251MG); these cell lines were incubated with the peptides at concentrations between 10^−4 to 10^−9 M to study their antiproliferation ability against cancer cells. Also, for the safety evaluation, a human skin keratinocyte cell line (HaCaT) was selected to investigate the cytotoxicity of peptides against normal human cells.
At first, after the stock cells were revived, they were transferred into a 75 mL flask with 10 mL of the corresponding culture medium and cultured for 3–5 days at 37 °C until most cells had attached to the flask wall. Then, the culture medium was removed, and 10 mL of PBS was used to wash the wall twice and discarded. Subsequently, 3–4 mL of a trypsin solution was added for 2–3 min to detach the cells from the container wall and then 8–10 mL of FBS was added to stop the digestion reaction. The cell suspension was transferred into a 15 mL tube and centrifuged. The supernatant was removed and 4 mL of complete growth medium was added to this tube to prepare a stock cell suspension. Approximately 10 µL of a mixture containing an equal volume of trypan blue and cell medium was dropped into a chamber to measure the density of cells under the microscope. Based on the cell density, the cell suspension was diluted with foetal bovine serum (FBS) (Sigma-Aldrich, St. Louis, MO, USA) to the standard cell density (H838, MCF-7: 8 × 10^4; U251MG: 5 × 10^4; HCT116: 2 × 10^5; HaCaT: 2 ×10^5 cells/mL). Then, it was seeded into a 96-well plate at 100 μL/well. After 20–24 h incubation, 100 μL of serum-free medium was used to replace the previous FBS medium and the plate was incubated another 4 h for cell starvation. At the same time, the peptide was dissolved in DMSO at a concentration of 10^−2 M and then mixed with the serum-free medium at working concentrations ranging from 10^−7 to 10^−4 M. Finally, the medium in the 96-well plate was replaced with the peptide solutions. The experimental group used 100 μL of the working concentration peptide solution. The vehicle group consisted of 1 µL of DMSO and 99 µL of serum-free medium. The blank and growth groups both comprised 100 µL of serum-free medium. The loaded 96-well plate was incubated for another 24 h for the treatment. The next day, 10 µL of MTT was added to each well and incubated for 2 h, after which, all media in each well were discarded and substituted with 100 μL of DMSO. After 10 min of shaking, the cell viability in each well was read at a wavelength of 570 nm.

U251MG = assay: Antiproliferation assay (MTT); assay type: cell-based, human; details: 24 h
Procedure: as §4
(§5) At first, after the stock cells were revived, they were transferred into a 75 mL flask with 10 mL of the corresponding culture medium and cultured for 3–5 days at 37 °C until most cells had attached to the flask wall. Then, the culture medium was removed, and 10 mL of PBS was used to wash the wall twice and discarded. Subsequently, 3–4 mL of a trypsin solution was added for 2–3 min to detach the cells from the container wall and then 8–10 mL of FBS was added to stop the digestion reaction. The cell suspension was transferred into a 15 mL tube and centrifuged. The supernatant was removed and 4 mL of complete growth medium was added to this tube to prepare a stock cell suspension. Approximately 10 µL of a mixture containing an equal volume of trypan blue and cell medium was dropped into a chamber to measure the density of cells under the microscope. Based on the cell density, the cell suspension was diluted with foetal bovine serum (FBS) (Sigma-Aldrich, St. Louis, MO, USA) to the standard cell density (H838, MCF-7: 8 × 10^4; U251MG: 5 × 10^4; HCT116: 2 × 10^5; HaCaT: 2 ×10^5 cells/mL). Then, it was seeded into a 96-well plate at 100 μL/well. After 20–24 h incubation, 100 μL of serum-free medium was used to replace the previous FBS medium and the plate was incubated another 4 h for cell starvation. […] After 10 min of shaking, the cell viability in each well was read at a wavelength of 570 nm.

H838 = assay: Antiproliferation assay (MTT); assay type: cell-based, human; details: H838, 24 h
Procedure: as §4
(§6) At first, after the stock cells were revived, they were transferred into a 75 mL flask with 10 mL of the corresponding culture medium and cultured for 3–5 days at 37 °C until most cells had attached to the flask wall. Then, the culture medium was removed, and 10 mL of PBS was used to wash the wall twice and discarded. Subsequently, 3–4 mL of a trypsin solution was added for 2–3 min to detach the cells from the container wall and then 8–10 mL of FBS was added to stop the digestion reaction. The cell suspension was transferred into a 15 mL tube and centrifuged. The supernatant was removed and 4 mL of complete growth medium was added to this tube to prepare a stock cell suspension. […] After 10 min of shaking, the cell viability in each well was read at a wavelength of 570 nm.

HaCaT = assay: Antiproliferation assay (MTT), normal cell cytotoxicity; assay type: cell-based, human; details: HaCaT (normal cell line), 24 h
Procedure: as §4, §5

E. coli (NCTC 13846) [4] = assay: SYTOX Green permeability assay; assay type: cell-based, Escherichia coli; details: at the MIC
Procedure: (§2) The SYTOX^TM Green Nucleic Acid Stain (ThermoFisher Scientific, Waltham, MA, USA) assay was used to investigate the antibacterial mechanism of the peptides as they cannot cross intact membranes, but can easily penetrate the damaged membranes characteristic of dead cells.
(§3) After being sub-cultured for 2 h, the bacteria were centrifuged at 1000× g for 10 min at 4 °C; then, the culture medium was discarded. […] After a third wash, the bacteria were diluted with the same solution until they reached the logarithmic growth phase in which the OD value just reached 0.70 at a wavelength of 590 nm. […] Finally, 10 μL of SYTOX^TM green nucleic acid stain (5 μM) was added to the plate and the mixture was incubated at 37 °C under dark conditions for another 5 min. […] Bacterial medium with 5% TSB acted as the negative control; bacterial medium treated with a melittin peptide solution (8 μM) was set as the positive control; 5% TSB alone was the blank control.

E. coli (BAA 2340) [5] = assay: SYTOX Green permeability assay; assay type: cell-based, Escherichia coli; details: at the MIC
Procedure: as §2, §3

E. coli (ATCC CRM 8739) = assay: SYTOX Green permeability assay; assay type: cell-based, Escherichia coli; details: at the MIC
Procedure: as §2, §3

MCF-7 = details: MCF-7, 24 h, MTT
Procedure: as §4, §6

[6] = 4 × MIC of peptide, after 120 h of infection

Row | SMILES | killing kinetics (in words) (E. coli (NCTC 13846) [1]) | time to kill bacteria (E. coli (BAA 2340) [2]; at the MIC) | mortality of infected larvae [3, 6] | IC50 (HCT116) | IC50 (U251MG) | IC50 (H838) | IC50 (HaCaT) | IC50 (MCF-7) | further results
1 | CC[C@H](C)[C@H](N)C(=O)N[C@@H](CCCCN)C(=O)N[C@@H](Cc1ccccc1)C(=O)N[C@@H](CCCCN)C(=O)N[C@H](C(=O)N[C@@H](Cc1c[nH]cn1)C(=O)N[C@@H](Cc1ccccc1)C(=O)N[C@@H](CCCNC(=N)N)C(=O)N[C@H]1CSSC[C@@H](C(=O)O)NC(=O)[C@H](Cc2ccccc2)NC(=O)[C@H](C)NC(=O)[C@H](C)NC(=O)[C@H](CCCCN)NC1=O)C(C)C [OSTI−1696] (H-IKFKVHFRCKAAFC-OH; disulfide 9-14; N-terminus and C-terminus assumed) | almost instant bactericidal activity | ≤ 10 min | 20% | N.I. | N.I. | N.I. | – | – | time to kill bacteria (E. coli (BAA 2340) [2]; at 2 × MIC): ≤ 5 min; time to kill bacteria (E. coli (BAA 2340) [2]; at 4 × MIC): ≤ 5 min
2 | CC[C@H](C)[C@H](NC(=O)[C@@H](N)C(C)C)C(=O)N[C@@H](Cc1ccccc1)C(=O)N[C@@H](CCCCN)C(=O)N[C@H](C(=O)N[C@@H](Cc1ccccc1)C(=O)N[C@@H](Cc1c[nH]c2ccccc12)C(=O)N[C@@H](CCCNC(=N)N)C(=O)N[C@H]1CSSC[C@@H](C(=O)O)NC(=O)[C@H](Cc2ccccc2)NC(=O)[C@H](C)NC(=O)[C@H](C)NC(=O)[C@H](CCCCN)NC1=O)C(C)C [OSTI−1716] (H-VIFKVFWRCKAAFC-OH; disulfide 9-14; N-terminus and C-terminus assumed) | – | – | – | N.I. | – | – | – | – | –
3 | CC[C@H](C)[C@H](NC(=O)[C@H](CC(N)=O)NC(=O)[C@@H](NC(=O)[C@H](C)N)C(C)C)C(=O)N1CCC[C@H]1C(=O)N[C@@H](Cc1ccccc1)C(=O)N[C@@H](CCCCN)C(=O)N[C@H](C(=O)N[C@@H](Cc1c[nH]cn1)C(=O)N[C@@H](Cc1ccccc1)C(=O)N[C@@H](CCCNC(=N)N)C(=O)N[C@H]1CSSC[C@@H](C(=O)O)NC(=O)[C@H](Cc2ccccc2)NC(=O)[C@H](C)NC(=O)[C@H](C)NC(=O)[C@H](CCCCN)NC1=O)C(C)C [OSTI−1949] (H-AVNIPFKVHFRCKAAFC-OH; disulfide 12-17; N-terminus and C-terminus assumed) | – | – | – | N.I. | N.I. | N.I. | N.I. | N.I. | uptake of SYTOX Green (E. coli (NCTC 13846) [4]): approximately 50%; uptake of SYTOX Green (E. coli (BAA 2340) [5]): approximately 50%; uptake of SYTOX Green (E. coli (ATCC CRM 8739)): approximately 50%
4 | CC(C)[C@H](NC(=O)[C@H](C)N)C(=O)N[C@@H](CCCCN)C(=O)N[C@@H](CCCNC(=N)N)C(=O)N[C@@H](C)C(=O)N[C@H](C(=O)N[C@@H](CCCCN)C(=O)N[C@@H](CCCNC(=N)N)C(=O)N[C@@H](Cc1ccccc1)C(=O)N[C@@H](CCCCN)C(=O)N[C@H](C(=O)N[C@@H](Cc1c[nH]cn1)C(=O)N[C@@H](Cc1ccccc1)C(=O)N[C@@H](CCCNC(=N)N)C(=O)N[C@H]1CSSC[C@@H](C(=O)O)NC(=O)[C@H](Cc2ccccc2)NC(=O)[C@H](C)NC(=O)[C@H](C)NC(=O)[C@H](CCCCN)NC1=O)C(C)C)C(C)C [OSTI−2363] (H-AVKRAVKRFKVHFRCKAAFC-OH; disulfide 15-20; N-terminus and C-terminus assumed) | almost instant bactericidal activity | ≤ 5 min | 40% | N.I. | N.I. | – | N.I. | N.I. | time to kill bacteria (E. coli (NCTC 13846) [1]; lowest tested concentration (MIC)): ≤ 5 min; killing kinetics (in words) (E. coli (BAA 2340) [2]; MIC, 2 × MIC and 4 × MIC): almost instant bactericidal activity
5 | CC[C@H](C)[C@H](NC(=O)[C@H](CC(N)=O)NC(=O)[C@@H](NC(=O)[C@H](C)N)C(C)C)C(=O)N1CCC[C@H]1C(=O)N[C@@H](Cc1ccccc1)C(=O)N[C@@H](CCCCN)C(=O)N[C@H](C(=O)N[C@@H](Cc1c[nH]cn1)C(=O)N[C@@H](Cc1ccccc1)C(=O)N[C@@H](CCCCN)C(=O)N[C@H](C(=O)N[C@@H](Cc1c[nH]cn1)C(=O)N[C@@H](Cc1ccccc1)C(=O)N[C@@H](CCCNC(=N)N)C(=O)N[C@H]1CSSC[C@@H](C(=O)O)NC(=O)[C@H](Cc2ccccc2)NC(=O)[C@H](C)NC(=O)[C@H](C)NC(=O)[C@H](CCCCN)NC1=O)C(C)C)C(C)C [OSTI−2461] (H-AVNIPFKVHFKVHFRCKAAFC-OH; disulfide 16-21; N-terminus and C-terminus assumed) | – | – | – | N.I. | – | – | N.I. | – | –
6 | CO[C@H]1/C=C/O[C@@]2(C)Oc3c(C)c(O)c4c(O)c(c(/C=N/N5CCN(C)CC5)c(O)c4c3C2=O)NC(=O)/C(C)=C\C=C\[C@H](C)[C@H](O)[C@@H](C)[C@@H](O)[C@@H](C)[C@H](OC(C)=O)[C@@H]1C [rifampicin, reference compound] | – | – | – | – | – | – | – | – | mortality of infected larvae ([3]; 20 mg/kg, 5 days, positive control): 20%
